What follows are compounds tested against B-Raf (V600E)-kinase (Homo sapiens (Human), UniProt P15056, V600E) (assay: Kinase test B-RAF (V600E)). Settings: B-RAF (V600E) kinase test, 250 μM ATP.
Assay type: biochemical
Procedure, shortened: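 Read-out is DELFIA europium TRF of phospho-MEK (Ser217/221) on biotinylated MEK1 bound to streptavidin plates, IC50 from dose-response. Reaction ran 60 min at RT with 250 μM ATP, after a 24 h RT preincubation of compound with B-Raf (V600E) kinase, 5% DMSO final.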

B-Raf (V600E)-kinase, sequence (P15056 whole entry V600E): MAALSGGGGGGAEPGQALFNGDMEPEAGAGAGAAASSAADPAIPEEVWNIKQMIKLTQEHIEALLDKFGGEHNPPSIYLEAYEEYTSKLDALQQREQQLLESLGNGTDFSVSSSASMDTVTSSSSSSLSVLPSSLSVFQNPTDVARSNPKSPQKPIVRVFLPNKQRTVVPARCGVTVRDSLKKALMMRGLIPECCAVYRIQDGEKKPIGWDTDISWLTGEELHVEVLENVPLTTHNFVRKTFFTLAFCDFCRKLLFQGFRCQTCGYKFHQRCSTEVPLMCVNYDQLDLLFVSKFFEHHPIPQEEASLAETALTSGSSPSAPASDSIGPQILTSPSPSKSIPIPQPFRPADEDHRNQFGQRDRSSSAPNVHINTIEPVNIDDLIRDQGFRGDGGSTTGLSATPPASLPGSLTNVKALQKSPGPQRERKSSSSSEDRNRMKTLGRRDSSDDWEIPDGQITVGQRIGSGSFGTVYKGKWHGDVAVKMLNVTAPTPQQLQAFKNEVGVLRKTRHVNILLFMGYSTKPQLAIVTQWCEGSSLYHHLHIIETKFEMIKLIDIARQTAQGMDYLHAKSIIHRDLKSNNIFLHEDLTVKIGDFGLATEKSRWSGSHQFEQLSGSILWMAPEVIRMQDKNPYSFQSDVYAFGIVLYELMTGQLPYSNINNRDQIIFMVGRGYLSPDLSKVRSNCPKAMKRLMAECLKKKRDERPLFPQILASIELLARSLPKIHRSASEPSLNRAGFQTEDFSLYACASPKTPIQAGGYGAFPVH

Structure (SMILES) | IC50
Cc1ccc(C(=O)NCc2cccc(C(C)(C)C)c2)cc1Nc1ncnc2cnc(N3CCN(C)CC3)nc12 [III-310] | 50 nM
Cc1ccc(C(=O)Nc2cccc(OC(F)(F)F)c2)cc1Nc1ncnc2cnc(N3CCCN(C)CC3)nc12 [III-222] | < 1 nM
Cc1ccc(C(=O)Nc2cc(C(C)(C)C)nn2C)cc1Nc1ncnc2cnc(N(C)CC3CCCCO3)nc12 (stereo not drawn) [III-476] | 17 nM
Cc1cn(-c2cc(NC(=O)c3ccc(C)c(Nc4ncnc5c(N)nc(N6CCN(C)CC6)nc45)c3)cc(C(F)(F)F)c2)cn1 [I-75] | 54 nM
COCCN1CCN(c2ncc3ncnc(Nc4cc(C(=O)Nc5cc(C(F)(F)F)ccc5-n5cccn5)ccc4C)c3n2)CC1 [III-538] | 10 nM
Cc1ccc(C(=O)Nc2cccc(C(C)(C)C)c2)cc1Nc1ncnc2cnc(N3CCNCC3)nc12 [III-341] | < 1 nM
Cc1ccc(C(=O)Nc2cc(C(C)(C)C)n[nH]2)cc1Nc1ncnc2c(N)nc(N3C[C@H]4C[C@@H]3CN4C)nc12 [I-36] | 4 nM
Cc1ccc(NC(=O)c2cccc(C(C)(C)C#N)c2)cc1Nc1ncnc2cnc(N(C)C)nc12 [IV-12] | 1 nM
Cc1ccc(C(=O)Nc2cccc(C(C)(C)C)c2)cc1Nc1ncnc2cnc(NC3CCOC3)nc12 (stereo not drawn) [III-350] | < 1 nM
COc1ccc(NC(=O)c2ccc(Cl)c(Nc3ncnc4cnc(N5CCOCC5)nc34)c2)cc1C(F)(F)F [III-12] | 2 nM
Cc1ccc(C(=O)Nc2cccc(C(C)(C)C)c2)cc1Nc1ncnc2cnc(N3CCOCC3)nc12 [III-294] | 1 nM
CN(C)c1ncc2ncnc(Nc3cc(C(=O)Nc4cc(C(C)(C)C)on4)ccc3F)c2n1 [III-93] | 1 nM
Cc1ccc(NS(=O)(=O)CCC(C)C)cc1Nc1ncnc2cnc(N3CCN(C)CC3)nc12 [IV-54] | 10000 nM
Cc1ccc(C(=O)Nc2cc(-n3ccnc3)cc(C(F)(F)F)c2)cc1Nc1ncnc2cnc(N3CCOCC3)nc12 [III-530] | 582 nM
CN(C)CCNc1ncc2ncnc(Nc3cc(C(=O)Nc4cc(C(C)(C)C)on4)ccc3F)c2n1 [III-91] | 1 nM
Cc1ccc(C(=O)Nc2cccc(C(C)(C)C)c2)cc1Nc1ncnc2cnc(N3CCCN(C)CC3)nc12 [III-224] | < 1 nM
COc1c(CN2CCCC2)cc(C(F)(F)F)cc1NC(=O)c1ccc(C)c(Nc2ncnc3cnc(N4CCOCC4)nc23)c1 [III-539] | 2 nM
CN1CCC(CN2CCN(c3ncc4ncnc(Nc5cc(C(=O)Nc6cc(C(C)(C)C)on6)ccc5F)c4n3)CC2)CC1 [III-394] | 1 nM
COCCN1CCN(c2ncc3ncnc(Nc4cc(C(=O)Nc5cc(C(C)(C)C)on5)ccc4C)c3n2)CC1 [III-517] | 3 nM
Cc1ccc(C(=O)Nc2cc(N3CCN(C)CC3)cc(C(F)(F)F)c2)cc1Nc1ncnc2cnc(N(C)CCF)nc12 [III-518] | 2 nM
COc1ccc(NC(=O)c2ccc(Cl)c(Nc3ncnc4cnc(N(C)C)nc34)c2)cc1C(F)(F)F [III-16] | 2 nM
Cc1ccc(C(=O)Nc2cccc(N(C)C)c2)cc1Nc1ncnc2cnc(N3CCCCC3)nc12 [III-247] | 1 nM
Cc1ccc(C(=O)Nc2cc(C(C)(C)C)n[nH]2)cc1Nc1ncnc2cnc(N3CCN(CC4CCN(C)CC4)CC3)nc12 [III-418] | 2 nM
Cc1ccc(NC(=O)c2cccc(C(C)(C)C#N)c2)cc1Nc1ncnc2cnc(N3CCC(F)(F)C3)nc12 [IV-33] | 2 nM

Structure (SMILES) | IC50
Cc1ccc(C(=O)NC2CC2)cc1Nc1ncnc2cnc(N3CCOCC3)nc12 [III-194] | > 2000 nM
COc1ccc(NC(=O)c2ccc(C)c(Nc3ncnc4cnc(N5CCN(C)CC5)nc34)c2)cc1C(F)(F)F [III-1] | 2 nM
Cc1ccc(C(=O)Nc2ccc(Cl)c(C(F)(F)F)c2)cc1Nc1ncnc2cnc(N3CCOCC3)nc12 [III-337] | 2 nM
Cc1ccc(NC(=O)c2cccc(C(F)(F)F)c2)cc1Nc1ncnc2c(N)nc(N(C)C)nc12 [II-7] | 15 nM
COc1ccc(NC(=O)c2ccc(C)c(Nc3ncnc4cnc(N5CCC(CN(C)C)CC5)nc34)c2)cc1C(F)(F)F [III-599] | 1 nM
COc1ncc2ncnc(Nc3cc(NC(=O)c4cccc(C(C)(C)C#N)c4)ccc3C)c2n1 [IV-40] | 2 nM
COc1ccc(NC(=O)c2ccc(Cl)c(Nc3ncnc4cnc(NCCN(C)C)nc34)c2)cc1C(F)(F)F [III-14] | 3 nM
Cc1ccc(C(=O)Nc2cc(CN3CCCC3)cc(C(F)(F)F)c2)cc1Nc1ncnc2cnc(N(C)C)nc12 [III-115] | 2 nM
COc1ccc(C(=O)Nc2ccc(OC)c(C(F)(F)F)c2)cc1Nc1ncnc2cnc(N(C)CCN3CCCC3)nc12 [III-21] | 3 nM
Cc1ccc(C(=O)Nc2cc(OCCN(C)C)cc(C(F)(F)F)c2)cc1Nc1ncnc2cnc(NCC3CCOC3)nc12 (stereo not drawn) [III-146] | < 1 nM
Cc1ccc(C(=O)Nc2cc(C(C)(C)C)on2)cc1Nc1ncnc2cnc(N(C)C3CC(N4CCN(C)CC4)C3)nc12 (stereo not drawn) [III-596] | 2 nM
Cc1ccc(C(=O)Nc2cc(C(C)(C)C)on2)cc1Nc1ncnc2cnc(N3CCN(C)CC3)nc12 [III-504] | 2 nM
CNc1ncnc2c(Nc3cc(C(=O)Nc4cc(C(C)(C)C)on4)ccc3C)ncnc12 [VII-1] | 1 nM
CCN1CCN(c2ncc3ncnc(Nc4cc(C(=O)Nc5cc(C(C)(C)C)on5)ccc4F)c3n2)CC1 [III-398] | 1 nM
CC(C)(C)c1cc(NC(=O)c2ccc(C(F)(F)F)c(Nc3ncnc4cnc(N5CCOCC5)nc34)c2)no1 [III-63] | 13 nM
COCCN1CCN(c2ncc3ncnc(Nc4cc(C(=O)Nc5ccc(OC)c(C(F)(F)F)c5)ccc4F)c3n2)CC1 [III-402] | 2 nM
CN1CCN(c2nc(N)c3ncnc(Nc4cc(C(=O)Nc5cccc(C(F)(F)F)c5)ccc4Cl)c3n2)CC1 [I-23] | 14 nM
CCN1CCN(c2cc(NC(=O)c3ccc(C)c(Nc4ncnc5cnc(N6CCN(CCOC)CC6)nc45)c3)cc(C(F)(F)F)c2)CC1 [III-424] | 6 nM
Cc1ccc(C(=O)Nc2cccc(C(F)(F)F)c2)cc1Nc1ncnc2cnc(N3CCCN(C)CC3)nc12 [III-217] | 2 nM
Cc1ccc(C(=O)Nc2cc(C(C)(C)C)n[nH]2)cc1Nc1ncnc2cnc(N3CCC(CN4CCCC4)CC3)nc12 [III-600] | 3 nM
COc1ccc(C(=O)Nc2cc(C(C)(C)C)on2)cc1Nc1ncnc2cnc(N3CCCC3)nc12 [III-82] | 20 nM
COCCN1CCN(c2ncc3ncnc(Nc4cc(C(=O)Nc5cc(N6CCN(C)CC6)c(F)c(C(F)(F)F)c5)ccc4C)c3n2)CC1 [III-501] | 25 nM
COc1ncc2ncnc(Nc3cc(NC(=O)c4ccc(Cl)c(C(F)(F)F)c4)ccc3C)c2n1 [IV-50] | 59 nM
CCN1CCN(c2ncc3ncnc(Nc4cc(C(=O)Nc5cc(C(C)(C)C)on5)ccc4C)c3n2)CC1 [III-491] | 2 nM

Structure (SMILES) | IC50
Cc1ccc(C(=O)Nc2cc(C(C)(C)C)on2)cc1Nc1ncnc2cnc(NC3CCOC3)nc12 (stereo not drawn) [III-357] | < 1 nM
Cc1ccc(C(=O)Nc2ccc(Cl)c(C(F)(F)F)c2)cc1Nc1ncnc2cnc(N3CCCC3)nc12 [III-269] | 33 nM
CC(C)(C)c1cc(NC(=O)c2ccc(F)c(Nc3ncnc4cnc(N5CCCC5)nc34)c2)no1 [III-90] | 5 nM
Cc1ccc(C(=O)Nc2cc(C(C)(C)C)n[nH]2)cc1Nc1ncnc2c(N)nc(N3C[C@@H](C)N[C@@H](C)C3)nc12 [I-35] | 2 nM
Cc1ccc(C(=O)Nc2cc(C(F)(F)F)ccn2)cc1Nc1ncnc2cnc(NCc3ccccc3)nc12 [III-522] | 3 nM
COCCN1CCN(c2ncc3ncnc(Nc4cc(C(=O)Nc5ccc(C#N)c(C(F)(F)F)c5)ccc4C)c3n2)CC1 [III-532] | 2 nM
Cc1ccc(C(=O)Nc2cc(C(F)(F)F)ccn2)cc1Nc1ncnc2cnc(N3CCOCC3)nc12 [III-321] | < 1 nM
Cc1ccc(C(=O)Nc2cc(N3CCN[C@H](C)C3)cc(C(F)(F)F)c2)cc1Nc1ncnc2cnc(N3CCOCC3)nc12 [III-527] | < 1 nM
COc1ccc(NC(=O)c2ccc(C(F)(F)F)c(Nc3ncnc4cnc(N(C)CCN5CCCC5)nc34)c2)cc1C(F)(F)F [III-46] | 451 nM
CC(C)(C#N)c1cccc(NC(=O)c2ccc(F)c(Nc3ncnc4cnc(N5CCOCC5)nc34)c2)c1 [III-383] | 4 nM
Cc1cn(-c2cc(NC(=O)c3ccc(C)c(Nc4ncnc5cnc(NC6CCOC6)nc45)c3)cc(C(F)(F)F)c2)cn1 (stereo not drawn) [III-507] | 1 nM
CCN(CC)c1ncc2ncnc(Nc3cc(C(=O)Nc4cc(CN5CCCC5)cc(C(F)(F)F)c4)ccc3C)c2n1 [III-117] | 2 nM
Cc1ccc(C(=O)Nc2ccc(C#N)c(C(F)(F)F)c2)cc1Nc1ncnc2cnc(N(C)CCN(C)C)nc12 [III-281] | 5 nM
COc1ccc(NC(=O)c2ccc(F)c(Nc3ncnc4cnc(N5CCN(C)CC5)nc34)c2)cc1C(F)(F)F [III-34] | 2 nM
COc1ccc(C(=O)Nc2cc(C(C)(C)C)on2)cc1Nc1ncnc2cnc(N(C)CCN3CCCC3)nc12 [III-97] | 4 nM
COc1ccc(C(=O)Nc2cc(C(C)(C)C)on2)cc1Nc1ncnc2cnc(N3CCCCCC3)nc12 [III-87] | 3 nM
COc1ccc(NC(=O)c2ccc(F)c(Nc3ncnc4cnc(NCCN(C)C)nc34)c2)cc1C(F)(F)F [III-39] | 2 nM
Cc1ccc(C(=O)Nc2cc(C(C)(C)C)on2)cc1Nc1ncnc2cncnc12 [V-1] | 2 nM
CN1CCC(CN2CCN(c3nc(N)c4ncnc(Nc5cccc(C(=O)Nc6cccc(C(F)(F)F)c6)c5)c4n3)CC2)CC1 [I-22] | 13 nM
COc1ccc(C(=O)Nc2ccc(OC)c(C(F)(F)F)c2)cc1Nc1ncnc2cnc(N(C)C)nc12 [III-29] | 2 nM
COCCN(C)c1ncc2ncnc(Nc3cc(C(=O)Nc4cc(C(C)(C)C)on4)ccc3OC)c2n1 [III-80] | 6 nM
Cc1ccc(C(=O)Nc2cccc(C(F)(F)F)c2)cc1Nc1ncnc2c(N)nc(N3CCN(C)CC3)nc12 [I-55] | < 1 nM
O=C(NC1CCOC1)c1ccc(F)c(Nc2ncnc3cnc(NC4CCOC4)nc23)c1 (stereo not drawn) [III-380] | 1400 nM
Cc1ccc(C(=O)Nc2cccc(N(C)C)c2)cc1Nc1ncnc2cnc(N3CCNCC3)nc12 [III-263] | 15 nM

— patent US8653087B2, “Pyrido [5, 4-D] pyrimidines as cell proliferation inhibitors” (Boehringer Ingelheim International GmbH, priority 2008, dated 2014)
